Assay results from patent US20210290648A1, “Potentiation of B-Lactam Antibiotics and B-Lactam/B-Lactamase Inhibitor Combinations Against Multidrug and Extensively Drug-Resistant Pseudomonas Aeruginosa Using Non-Ribosomal Tobramycin-Cyclam Conjugates” (University of Manitoba, priority 2018, published 2021).

Tests used:
Format in all cases: cell-based, Pseudomonas aeruginosa
[1] = tested on: MDR/XDR P. aeruginosa clinical isolates; assay: MIC and checkerboard, panel of clinical isolates; settings: antibiotic + compound 2 (8.7 μM); resistant P. aeruginosa isolates
PA 100036 = assay: Checkerboard combination study / MIC; settings: for MICCombination (antibiotic): MIC of antibiotic combined with compound 2; for FICI: antibiotic + compound 2; for MICAntibiotic: antibiotic alone; for FICAntibiotic: with compound 2
WT P. aeruginosa PAO1 = assay: Checkerboard combination study / MIC; settings: for MIC of antibiotic + Compound 2 in PAO1 / fold change of MIC + Compound 2 in PAO1: + compound 2 ≤8.7 μM; for MIC: Pseudomonas aeruginosa, PAO1, 18 h, WT PAO1 (Table 2), read-out: MIC alone; for MIC / MIC of antibiotic alone in PAO1: antibiotic alone; for FICI in the presence of ≤10 μM of 1: antibiotic + compound 1; for FICI in the presence of ≤10 μM of 1 / MIC of Antibiotics in the presence of ≤10 μM of 1 / FICI in the presence of ≤10 μM of 2 / MIC of Antibiotics in the presence of ≤10 μM of 2 / FICI in the presence of ≤10 μM of 3 / MIC of Antibiotics in the presence of ≤10 μM of 3: WT PAO1; for MIC of Antibiotics in the presence of ≤10 μM of 1: antibiotic + compound 1 ≤10 μM; for FICI in the presence of ≤10 μM of 2: antibiotic + compound 2; for MIC of Antibiotics in the presence of ≤10 μM of 2: antibiotic + compound 2 ≤10 μM; for FICI in the presence of ≤10 μM of 3: antibiotic + compound 3; for MIC of Antibiotics in the presence of ≤10 μM of 3: antibiotic + compound 3 ≤10 μM; for MIC of antibiotic alone in PAO1: PAO1 wild-type (Table 4)
PA 91433 = assay: Checkerboard combination study / MIC; settings: PA 91433
PA 262 = assay: Checkerboard combination study / MIC; settings: for MICCombination (antibiotic): MIC of antibiotic combined with compound 2; for FICI: antibiotic + compound 2; for MICAntibiotic: antibiotic alone; for FICAntibiotic: with compound 2
PA 260 = assay: Checkerboard combination study / MIC; settings: for MICCombination (antibiotic): MIC of antibiotic combined with compound 2; for FICI: antibiotic + compound 2; for MICAntibiotic: antibiotic alone; for FICAntibiotic: with compound 2
PA 259 = assay: Checkerboard combination study / MIC; settings: for MICAntibiotic: antibiotic alone
PA 114228 = assay: Checkerboard combination study / MIC; settings: for MICCombination (antibiotic): MIC of antibiotic combined with compound 2; for FICI: antibiotic + compound 2; for MICAntibiotic: antibiotic alone; for FICAntibiotic: with compound 2
PAO200 = settings: for MIC of antibiotic + Compound 2 in PAO200 / fold change of MIC + Compound 2 in PAO200: + compound 2 ≤8.7 μM; for MIC of antibiotic alone in PAO200: PAO200 efflux-deficient
Description: (§1) PAO200 is a tnexA-rnexB-oprM deletion strain while PAO750 lacks five important RND pumps (McxAB-OprM, MexCD-OprJ, MexEF-OprN, Mex JK, and MexXY) and the outer membrane protein OpmH (46, 47). Some of these pumps are homologues of broad substrate specificities that extrude different classes of antimicrobial agents and confer resistance on P. aeruginosa (48).
(§2) Antimicrobial Susceptibility Assay. The in vitro antimicrobial activity of all compounds/antibiotics against a panel of bacteria was evaluated by microbroth dilution method in accordance with the Clinical and Laboratory Standards Institute (CLSI) guidelines. Overnight grown bacterial cultures were diluted in saline to achieve a 0.5 McFarland turbidity, followed by 1:50 dilution in Mueller-Hinton broth (MHB) for inoculation to a final concentration of approximately 5×10^5CFU/mL. The antimicrobial agents were 2-fold serially diluted in MHB in a 96-well plate and incubated at 37° C. with equal volumes of inoculum for 18 h. The lowest concentration that prevented the visible growth of bacteria was defined as the MIC for each antimicrobial agent. The broth with or without bacterial cells was used as positive or negative control, respectively.
(§3) Checkerboard Assay. Combination studies with different antibiotics were performed in 96-well plates as previously described (22). Briefly, the antibiotic of interest was serially diluted in MHB along the abscissa while the adjuvant (newly synthesized conjugates) was serially diluted in MHB along the ordinate. This creates a 10×7 matrix wherein each well consists of a combination of different antibiotic and adjuvant concentrations. Overnight grown bacterial cultures were diluted in saline to achieve a 0.5 McFarland turbidity, followed by 1:50 dilution in Mueller-Hinton broth (MHB) for inoculation to a final concentration of approximately 5×10^5CFU/mL. Equal volume of this bacterial culture was then added to each well and incubated at 37° C. for 18 h. After incubation, the plates were read on EMax® Plus microplate reader (Molecular Devices, Sunnyvale, Calif., USA) at 590 nm. MIC was recorded as wells with the lowest concentration of drugs with no bacterial growth. The fractional inhibitory concentration (FIC) for each antibiotic was calculated by dividing the MIC of the antibiotic in the presence of adjuvant by the MIC of the antibiotic alone. Similarly, the FIC of adjuvant was calculated by dividing the MIC of the adjuvant in the presence of antibiotic by the MIC of the adjuvant alone. FIC index is the sum of both FICs. FIC indices of <0.5 were deemed synergistic; 0.5-4, no interaction; and >4, antagonistic.

PAO750 = settings: for MIC of antibiotic + Compound 2 in PAO750 / fold change of MIC + Compound 2 in PAO750: + compound 2 ≤8.7 μM; for MIC of antibiotic alone in PAO750: PAO750 efflux-deficient
Description: as §1, §2, §3

PA 101243 = assay: Checkerboard combination study / MIC; settings: PA 101243; for MICCombination (antibiotic): MIC of antibiotic combined with compound 2; for FICI: antibiotic + compound 2; for MICAntibiotic: antibiotic alone; for FICAntibiotic: with compound 2
PA 264 = assay: Checkerboard combination study / MIC; settings: for MICCombination (antibiotic): MIC of antibiotic combined with compound 2; for FICI: antibiotic + compound 2; for MICAntibiotic: antibiotic alone; for FICAntibiotic: with compound 2
PA 101885 = assay: Checkerboard combination study / MIC; settings: for MICCombination (antibiotic): MIC of antibiotic combined with compound 2; for FICI: antibiotic + compound 2; for MICAntibiotic: antibiotic alone; for FICAntibiotic: with compound 2
[2] = MIC of antibiotic combined with compound 2

C[C@@H](O)[C@H]1C(=O)N2C(C(=O)O)=C(S[C@@H]3CN[C@H](CNS(N)(=O)=O)C3)[C@H](C)[C@H]12 [Doripenem]
resistant isolates reaching CLSI clinical breakpoint [1]: three out of nine
MICCombination (antibiotic) (PA 100036): 8 µg/mL
FICI (PA 100036): <0.56
MICAntibiotic (PA 100036): 16 µg/mL
FICAntibiotic (PA 100036): 0.500
MIC of antibiotic + Compound 2 in PAO1 (WT P. aeruginosa PAO1): 0.5 µg/mL
fold change of MIC + Compound 2 in PAO1 (WT P. aeruginosa PAO1): 2
MIC (WT P. aeruginosa PAO1): 1 µg/mL
FICI in the presence of ≤10 μM of 1 (WT P. aeruginosa PAO1): 0.51
MIC of Antibiotics in the presence of ≤10 μM of 1 (WT P. aeruginosa PAO1): 0.5 µg/mL
FICI in the presence of ≤10 μM of 2 (WT P. aeruginosa PAO1): 0.50
MIC of Antibiotics in the presence of ≤10 μM of 2 (WT P. aeruginosa PAO1): 0.5 µg/mL
FICI in the presence of ≤10 μM of 3 (WT P. aeruginosa PAO1): 0.50
MIC of Antibiotics in the presence of ≤10 μM of 3 (WT P. aeruginosa PAO1): 0.5 µg/mL
MIC of antibiotic alone in PAO1 (WT P. aeruginosa PAO1): 1 µg/mL
MICCombination (antibiotic) (PA 91433; [2]): 1 µg/mL
FICI (PA 91433; antibiotic + compound 2): <0.09
MICAntibiotic (PA 91433; antibiotic alone): 16 µg/mL
FICAntibiotic (PA 91433; with compound 2): 0.063
MICCombination (antibiotic) (PA 262): 4 µg/mL
FICI (PA 262): <0.31
MICAntibiotic (PA 262): 16 µg/mL
FICAntibiotic (PA 262): 0.250
MICCombination (antibiotic) (PA 260): 8 µg/mL
FICI (PA 260): <0.53
MICAntibiotic (PA 260): 16 µg/mL
FICAntibiotic (PA 260): 0.500
MICAntibiotic (PA 259): >1024 µg/mL
MICCombination (antibiotic) (PA 114228): 1 µg/mL
FICI (PA 114228): <0.14
MICAntibiotic (PA 114228): 8 µg/mL
FICAntibiotic (PA 114228): 0.125
MIC of antibiotic + Compound 2 in PAO200 (PAO200): 0.25 µg/mL
fold change of MIC + Compound 2 in PAO200 (PAO200): 4
MIC of antibiotic alone in PAO200 (PAO200): 1 µg/mL
MIC of antibiotic + Compound 2 in PAO750 (PAO750): 0.25 µg/mL
fold change of MIC + Compound 2 in PAO750 (PAO750): 4
MIC of antibiotic alone in PAO750 (PAO750): 1 µg/mL
MICCombination (antibiotic) (PA 101243): 8 µg/mL
FICI (PA 101243): <0.50
MICAntibiotic (PA 101243): 16 µg/mL
FICAntibiotic (PA 101243): 0.500
MICCombination (antibiotic) (PA 264): 8 µg/mL
FICI (PA 264): <0.51
MICAntibiotic (PA 264): 16 µg/mL
FICAntibiotic (PA 264): 0.500
MICCombination (antibiotic) (PA 101885): 1 µg/mL
FICI (PA 101885): <0.27
MICAntibiotic (PA 101885): 4 µg/mL
FICAntibiotic (PA 101885): 0.250

CCN1CCN(C(=O)N[C@@H](C(=O)N[C@@H]2C(=O)N3[C@@H]2SC(C)(C)[C@@H]3C(=O)O)c2ccccc2)C(=O)C1=O [Piperacillin]
resistant isolates reaching CLSI clinical breakpoint [1]: zero out of six
MICCombination (antibiotic) (PA 100036): 64 µg/mL
FICI (PA 100036): <1.06
MICAntibiotic (PA 100036): 64 µg/mL
FICAntibiotic (PA 100036): 1.000
MIC of antibiotic + Compound 2 in PAO1 (WT P. aeruginosa PAO1): 2 µg/mL
fold change of MIC + Compound 2 in PAO1 (WT P. aeruginosa PAO1): 4
MIC (WT P. aeruginosa PAO1): 8 µg/mL
FICI in the presence of ≤10 μM of 1 (WT P. aeruginosa PAO1): 0.26
MIC of Antibiotics in the presence of ≤10 μM of 1 (WT P. aeruginosa PAO1): 2 µg/mL
FICI in the presence of ≤10 μM of 2 (WT P. aeruginosa PAO1): 0.25
MIC of Antibiotics in the presence of ≤10 μM of 2 (WT P. aeruginosa PAO1): 2 µg/mL
FICI in the presence of ≤10 μM of 3 (WT P. aeruginosa PAO1): 0.25
MIC of Antibiotics in the presence of ≤10 μM of 3 (WT P. aeruginosa PAO1): 2 µg/mL
MIC of antibiotic alone in PAO1 (WT P. aeruginosa PAO1): 8 µg/mL
MICCombination (antibiotic) (PA 262): 512 µg/mL
FICI (PA 262): <0.52
MICAntibiotic (PA 262): 1024 µg/mL
FICAntibiotic (PA 262): 0.500
MICCombination (antibiotic) (PA 260): 512 µg/mL
FICI (PA 260): <1.06
MICAntibiotic (PA 260): 512 µg/mL
FICAntibiotic (PA 260): 1.000
MICCombination (antibiotic) (PA 259; [2]): 256 µg/mL
FICI (PA 259; antibiotic + compound 2): <0.50
MICAntibiotic (PA 259): 512 µg/mL
FICAntibiotic (PA 259; with compound 2): 0.500
MICCombination (antibiotic) (PA 114228): 8 µg/mL
FICI (PA 114228): <0.50
MICAntibiotic (PA 114228): 16 µg/mL
FICAntibiotic (PA 114228): 0.500
MIC of antibiotic + Compound 2 in PAO200 (PAO200): 1 (1) μg/ml
fold change of MIC + Compound 2 in PAO200 (PAO200): 1 (1)
MIC of antibiotic alone in PAO200 (PAO200): 1 µg/mL
MIC of antibiotic + Compound 2 in PAO750 (PAO750): 0.5 µg/mL
fold change of MIC + Compound 2 in PAO750 (PAO750): 4
MIC of antibiotic alone in PAO750 (PAO750): 2 µg/mL
MICCombination (antibiotic) (PA 101243): 128 µg/mL
FICI (PA 101243): <1.06
MICAntibiotic (PA 101243): 128 µg/mL
FICAntibiotic (PA 101243): 1.000
MICCombination (antibiotic) (PA 264): 1024 µg/mL
FICI (PA 264): <0.52
MICAntibiotic (PA 264): 2048 µg/mL
FICAntibiotic (PA 264): 0.500
MICCombination (antibiotic) (PA 101885): 4 µg/mL
FICI (PA 101885): <0.31
MICAntibiotic (PA 101885): 16 µg/mL
FICAntibiotic (PA 101885): 0.250
